Assay results from patent US11674182B2, “Biomarker for HER2-positive cancer and anti-HER2 therapy and applications thereof” (INDUSTRY-UNIVERSITY COOPERATION FOUNDATION HANYANG …, priority 2017, dated 2023).

Columns and labels:
ADAM10 and ADAM17 = details: HER2+ metastatic breast cancer patients expressing p95-HER2; trial reported to have failed; cited from earlier work
ADAM10 = target: T1, ADAM10 (Homo sapiens, UniProt O14672); details: cited from earlier work
T1 sequence (O14672 214-748): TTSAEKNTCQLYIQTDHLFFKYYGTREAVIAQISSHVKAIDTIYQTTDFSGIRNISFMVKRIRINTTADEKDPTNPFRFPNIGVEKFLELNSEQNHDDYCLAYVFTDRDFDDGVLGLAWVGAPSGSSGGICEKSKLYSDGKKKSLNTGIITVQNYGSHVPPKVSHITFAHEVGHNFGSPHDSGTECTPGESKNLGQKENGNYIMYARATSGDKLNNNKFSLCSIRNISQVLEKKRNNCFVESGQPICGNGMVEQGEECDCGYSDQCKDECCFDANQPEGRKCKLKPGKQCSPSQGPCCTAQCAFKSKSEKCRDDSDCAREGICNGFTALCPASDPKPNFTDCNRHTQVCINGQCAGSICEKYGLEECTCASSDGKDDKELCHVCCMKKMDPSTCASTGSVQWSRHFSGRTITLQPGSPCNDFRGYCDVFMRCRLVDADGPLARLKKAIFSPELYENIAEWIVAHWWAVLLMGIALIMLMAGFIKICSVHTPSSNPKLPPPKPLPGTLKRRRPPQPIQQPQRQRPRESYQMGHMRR

ErbB-PI3K-AKT signaling = assay: Immunoblotting / ELISA of ErbB signaling and ErbB ligand secretion in BT474 cells; type: cell-based, human; details: MEL-18-knockdown BT474 cells; 1 μM GW280264, 24 hours
Method: Cells were lysed in RIPA buffer, and the lysates were subjected to immunoblotting and immunoprecipitation as described in [M. H. Cho et al, Nat Commun 6, 7821(2015)] (60). For immunoblotting, the cell lysates were separated by 6% to 15% SDS-polyacrylamide gel electrophoresis (PAGE) and transferred to nitrocellulose membranes. After blocking the membranes with 5% skin milk, the membranes were incubated with primary antibodies overnight at 4° C., and then reacted with horseradish peroxidase (HRP)-conjugated secondary antibodies for 1 hour at room temperature. Bands were visualized using an ECL detection system (GE Healthcare, Chalfont St. Giles, UK).
The levels of the HER ligands HB-EGF and heregulinl (heregulinl, NRG1-beta1, NRG1) were measured in cell culture supernatants using ELISA (BosterBio and R&D Systems) according to the manufacturer's protocols.
In the case of the R&D Systems kit, an ELISA plate was coated overnight with captured antibodies and blocked with 3% BSA for 1 hour. […]
In the case of the BosterBio ELISA kit, the antibody-coated plate was directly filled with samples and standards, and incubated for 90 minutes. […] After this step, the plates for both kits were filled with a substrate solution for 20 minutes, the reaction was stopped using a stop solution for 20 minutes, and the absorbance was measured using a microplate reader at a wavelength of 450 nm. […]

BT474 cells = assay: Cell viability test (SRB) and colony formation assay in BT474 cells; type: cell-based, human; details: MEL-18-depleted BT474 cells; 1 μM GW280264 with trastuzumab, 5 days
Method: An in vitro toxicity test analysis kit (Sulforhodamine B based, TOX6) was purchased from Sigma-Aldrich (St. Louis, Mo., USA), and used according to the manufacturer's protocols. […] After five days, the cells were fixed by layering a TCA solution in the medium, and incubated at 4° C. for 1 hour. The fixed cells were washed with water several times, and stained with a 0.4% sulforhodamine B solution for 30 minutes. Subsequently, the stained cells were washed with a 1% acetic acid solution until remaining salts were no longer observed, and the incorporated dye was dissolved in a 10 mM Tris solution while gently stirring. The prepared plate was detected using a microplate reader at 490 nm.
After 2 weeks, the cells were fixed with a 4% formaldehyde solution for 5 minutes, washed with PBS, and stained with 0.02% crystal violet (C0775, Sigma-Aldrich) for 1 to 2 hours at room temperature and then washed again. The prepared plates were dried thoroughly, and the experiment was carried out.

Structure (SMILES): COC(=O)N1CC2(CC2)C[C@H](C(=O)NO)[C@H]1C(=O)N1CCN(c2ccccc2)CC1 [INCB7839, (6S,7S)-7-[(hydroxyamino)carbonyl]-6-[(4-phenyl-1-piperazinyl)carbonyl]-5-azaspiro[2.5]octane-5-carboxylic acid methyl ester]
- clinical therapeutic effect in combination with Herceptin (ADAM10 and ADAM17): improves a clinical therapeutic effect of Herceptin

Structure (SMILES): CNC(=O)[C@@H](NC(=O)[C@H](CCCc1ccccc1)[C@H](C)N(O)C=O)C(C)(C)C [GI254023, (2R)—N-[(1S)-2,2-dimethyl-1-[(methylamino)carbonyl]-propyl]-2-[(1S)-1-[formyl(hydroxy)amino]ethyl]-5-phenylpentanamide]
- selectivity to ADAM10 with respect to ADAM17 (ADAM10): about 100 fold

Structure (SMILES): CCC[C@@H]([C@@H](CC(C)C)C(=O)N[C@@H](CCCCNC(=O)OCc1ccccc1)C(=O)Nc1nccs1)N(O)C=O [GW280264, benzyl N-[(5S)-5-[[(2R,3S)-3-(Formylhydroxyamino)-2-(2-methylpropyl)-1-oxohexyl]amino]-6-oxo-6-(2-thiazolylamino)hexyl]-carbamate]
- activation of ErbB-PI3K-AKT signaling and secretion of ErbB ligands (ErbB-PI3K-AKT signaling): reversing the activation of ErbB-PI3K-AKT signaling
- anti-proliferative effect of trastuzumab on co-treatment with GW280264 (BT474 cells): resistance to trastuzumab is improved
